In ChEMBL document CHEMBL5441142, “Probing the Merck KGaA Open Global health library for novel starting points for anti-schistosomal drug discovery” (2024):
Calls of active or inactive are those of the source. The rule behind the calls is not given here.

Tested on: Schistosoma mansoni
Assay: In vitro activity screen on S. mansoni schistosomula at 10 uM. Compound-induced effects were assessed by quantifying larva motility and phenotype using Roboworm.
Format: functional, organism-based
Set-up: test concentration 10 uM, temperature 37 degree C, time incubation 72 h
Conditions: Puerto Rican

SMILES	In vitro activity
Cc1ccccc1-c1ccc(-c2nc(-c3ccc(CN(C)CCC(=O)O)c(F)c3)no2)cc1C(F)(F)F	inactive
CCCc1nn(C)c2c(=O)[nH]c(-c3cc(S(=O)(=O)Oc4ccncc4)ccc3OCC)nc12	inactive
CCOc1cc(-c2nc(-c3ccc(CN(C)CC(=O)O)cc3)no2)ccc1-c1ccccc1C	inactive
C1=C(c2ccccc2)CCN(CCCCc2c[nH]c3ccccc23)C1	inactive
COCc1cc(-c2nc(-c3cc(F)cc(CN(C)CC(=O)O)c3)no2)ccc1-c1cccc(F)c1C	inactive
CC1=C(C(=O)N2CCc3ncc(C(F)(F)F)cc3C2)C2(CCN(C3CCCC3)CC2)OC1=O	inactive
C=CC(C)c1cc(C)c(C(=O)N=C(N)N)cc1S(C)(=O)=O (stereo not drawn)	inactive
COc1ccc(CNc2nc(-c3ccc(C(=O)O)nc3)nc3sc4c(c23)CCCC4)cc1Cl	inactive
CC(c1cccc(-c2nnn[nH]2)c1)N(Cc1ccccc1)S(=O)(=O)c1ccc(Cl)cc1 (stereo not drawn)	inactive
COCCCN1CCC2(CC1)OC(=O)C(C)=C2C(=O)N1CCc2ccc(C(F)(F)F)cc2C1	inactive
O=C(O)CN1C(=O)[C@@]2(NC(=O)N(Cc3cc(Cl)ccc3F)C2=O)c2cc(Cl)ccc21	inactive
CC1SC(=O)NN=C1c1ccc2c(c1)CCCN2 (stereo not drawn)	inactive
COc1ccc(CNc2nc([C@H]3CC[C@H](C(=O)O)CC3)nc3sc4ccccc4c23)cc1Cl	inactive
COCc1cc(-c2nc(-c3cccc(CN(C)CCC(=O)O)c3)no2)ccc1N1CCCCC1C (stereo not drawn)	inactive
CCCCc1nc2ccn(CC(=O)N(C)C)c(=O)c2n1Cc1ccc(-c2ccccc2-c2nnn[nH]2)cc1	inactive
COc1ccc(C(=O)N2CCCc3cc(C4=NNC(=O)SC4C)ccc32)cc1OC (stereo not drawn)	inactive
Cn1cc(-c2cnc3[nH]cc(-c4cn(Cc5cccc(F)c5F)nn4)c3c2)cn1	inactive
Cc1cc(-n2cccc2)c(S(C)(=O)=O)cc1C(=O)N=C(N)N	inactive
COc1ccc(CNc2nc(CCCCC(=O)O)nc3sc4ccccc4c23)cc1Cl	inactive
COc1ccccc1CCN1CCC2(CC1)OC(=O)C(C)=C2C(=O)N1CCc2ccc(C(F)(F)F)cc2C1	inactive
CC1=C(C(=O)N2CCc3ccc(C(F)(F)F)cc3C2)C2(CCN(C3CCCCC3)CC2)OC1=O	inactive
CCCN1CCC2(CC1)OC(=O)C(C)=C2C(=O)N1CCc2ncc(C(F)(F)F)cc2C1	inactive

SMILES	In vitro activity
Cc1cc2c(cc1C(=O)N=C(N)N)S(=O)(=O)C(C)(C)CO2	inactive
COc1cc(OC)c(CCNC(=O)c2cn3cc(-c4cc(OCC(=O)NCCO)ccc4OC)nc3s2)c(OC)c1	inactive
Cc1cc(C(C)C)c(S(C)(=O)=O)cc1C(=O)N=C(N)N	inactive
O=C(Nc1ccc(CNc2ncnc3ccccc23)cc1)c1ccc(Cl)c(F)c1	inactive
Oc1ccc2[nH]cc(CCCCN3CC=C(c4ccccc4)CC3)c2c1	inactive
CCC(C)[S+]([O-])c1ccc(-c2nc3ccncc3[nH]2)c(OC)c1 (stereo not drawn)	inactive
O=C(O)Cc1ccc(-c2nc(NCc3ccc4c(c3)OCO4)c3c(n2)sc2ccccc23)cc1	inactive
CC1=C(C(=O)N2CCc3ncc(C(F)(F)F)cc3C2)C2(CCN(C3CCC(O)CC3)CC2)OC1=O (stereo not drawn)	inactive
COC(=O)c1cc(C(=O)N=C(N)N)c(C)cc1C	inactive
CCNC1=N[C@@H]2[C@@H](O)[C@H](O)[C@@H](Cn3cc(COc4cccc(Br)c4)nn3)O[C@@H]2S1	inactive
COCc1cc(-c2nc(-c3ccc(CN(C)CCC(=O)O)cc3)no2)ccc1-c1ccccc1C	inactive
COc1cc(OC)c(CCNC(=O)c2cn3cc(-c4cc(OCC(=O)O)ccc4OC)nc3s2)c(OC)c1	inactive
CCC(C)c1cc(C)c(C(=O)N=C(N)N)cc1S(C)(=O)=O (stereo not drawn)	inactive
CC/N=C(\c1ccc(OC)c(OC)c1)N1CCCc2cc(C3=NNC(=O)SC3C)ccc21 (stereo not drawn)	inactive
O=C(O)CCC(=O)OCC1(c2ccc(Cl)cc2)OCC(c2ccccc2)(c2ccccc2)CO1	inactive
COc1ccccc1-n1c(=S)[nH]c2scc(C)c2c1=O	inactive
Cc1cc(-c2cccs2)c(S(C)(=O)=O)cc1C(=O)N=C(N)N	inactive
Cc1c(O)nc(N)nc1-c1cc2ccccc2o1	inactive
CCc1ccccc1N/C=C1\C(=O)N(c2ccc(S(=O)(=O)O)cc2)N=C1C	inactive
O=C(O)c1ccc2[nH]cc(CCCCN3CC=C(c4ccccc4)CC3)c2c1	inactive
COc1cc(OC)cc(-c2cn3cc(C(=O)NCCc4ccc(OC)cc4OC)ccc3n2)c1	inactive
O=C(O)[C@H]1CC[C@H](c2nc(NCc3ccc4c(c3)OCO4)c3c4c(sc3n2)CCCC4)CC1	inactive

SMILES	In vitro activity
CCOc1cc(CCNC(=O)C[C@H]2S[C@@H](c3ccc(C#Cc4ccccc4)cc3)N(c3cccc(C(N)=O)c3)C2=O)ccc1O	inactive
Cc1cc(C2CCCC2)c(S(C)(=O)=O)cc1C(=O)N=C(N)N	inactive
CCOc1cc(C2=NN(C(=O)c3ccc(NC(=O)c4ccc(OC)cc4)cc3)CCC2)ccc1OC	inactive
Cc1cc2c(cc1C(=O)N=C(N)N)S(=O)(=O)C(C)(C)/C2=N\O	inactive
CC1=C(C(=O)N2CCc3ncc(C(F)(F)F)cc3C2)C2(CCN(C3CCc4ccccc43)CC2)OC1=O (stereo not drawn)	inactive
CCc1cc(C(=O)NCc2ccc3c(c2)OCO3)c(NC(=O)c2ccc(C(=O)O)cc2)s1	inactive
COCc1cc(-c2nc(-c3cc(F)cc(CN(C)CC(=O)O)c3)no2)ccc1-c1ccccc1F	inactive
CC1=C(C(=O)N2CCc3ccc(C(F)(F)F)cc3C2)C2(CCN(C)CC2)OC1=O	inactive
COc1cc(C(=O)Nc2nc(Nc3cccc(C(F)(F)F)c3)n(C)n2)ccc1-n1cnc(C)c1	inactive
Cc1csc(N2CCN(C(C)c3ccc4c(c3)OCO4)CC2)n1 (stereo not drawn)	inactive
COc1cc(SC(C)C#N)ccc1-c1nc2ccncc2[nH]1 (stereo not drawn)	inactive
CCCc1nn(C)c2c(=O)[nH]c(-c3cc(S(=O)(=O)n4ccc(O)cc4=O)ccc3OCC)nc12	inactive
CCCc1nn(C)c2c(=O)[nH]c(-c3cc(S(=O)(=O)Oc4ccc(=O)n(C)n4)ccc3OCC)nc12	inactive
COc1cc([S+](C)[O-])ccc1-c1nc2cnccc2[nH]1 (stereo not drawn)	inactive
COc1ccc(CNc2nc(CCCCC(=O)O)nc3sc4c(c23)CCCC4)cc1Cl	inactive
CCc1cc(Oc2cccnc2)c(S(C)(=O)=O)cc1C(=O)N=C(N)N	inactive
Cc1nc2c3c(nn2c(C)c1Cl)CN(C(=O)c1ccc(F)cc1OC1C[C@H]2COC[C@H](C1)N2C)C3 (stereo partly drawn)	inactive
COc1ccc(OC)c(CCNC(=O)c2cn3cc(-c4cc(OC)ccc4OC)nc3s2)c1	inactive
COCc1cc(-c2nc(-c3ccc(CN(C)CCC(=O)O)c(F)c3)no2)ccc1-c1ccccc1C	inactive
Cc1cc2c(NCc3ccc4c(c3)OCO4)nc(-c3ccc(C(=O)O)cc3)nc2s1	inactive
O=C(O)c1ccc(C(=O)Nc2[nH]c3ccccc3c2C(=O)NCc2ccc3c(c2)OCO3)cc1	inactive
C[C@H]1CCCCN1c1ccc(-c2nc(-c3cccc(CN(C)CC(=O)O)c3)no2)cc1C(F)(F)F	inactive

SMILES	In vitro activity
COCc1cc(-c2nc(-c3ccc(CN(C)CC(=O)O)c(F)c3)no2)ccc1-c1ccccc1F	inactive
Cc1ccc(-c2ccccc2)cc1C(=O)N=C(N)N	inactive
CC1=C(C(=O)N2CCc3ccc(C(F)(F)F)cc3C2)C2(CCN(CC3CCOC3)CC2)OC1=O (stereo not drawn)	inactive
COCc1cc(-c2nc(-c3ccc(CN(C)CC(=O)O)c(F)c3)no2)ccc1-c1ccccc1C	inactive
CC1(C)Oc2ccc(C#N)cc2[C@@H](n2ccccc2=O)[C@@H]1O	inactive
CCC(C)Oc1ccc(-c2nc(-c3cc(F)cc(CN(C)CCC(=O)O)c3)no2)cc1COC (stereo not drawn)	inactive
O=S(=O)(Nc1ccc2nsnc2c1)c1ccccc1-c1ccccc1	inactive
COCc1cc(-c2nc(-c3cccc(CN(C)CC(=O)O)c3)no2)ccc1-c1ccccc1C	inactive
O=C(O)C1CCN(c2nc(NCc3ccc4c(c3)OCO4)c3c4c(sc3n2)CCCC4)CC1	inactive
CCCCCCN(Cc1ccc(C#Cc2ccc(CCCC)cc2)cc1)c1ccc(O)c(C(=O)O)c1	inactive
COc1ccc(CNc2nc(-c3ccc(S(=O)(=O)O)cc3)nc3sc4c(c23)CCCC4)cc1Cl	inactive
O=C(Nc1ccc(Oc2ccncc2)cc1)Nc1cc(C(F)(F)F)ccc1-n1cncn1	inactive
COCc1cc(-c2nc(-c3cccc(CN(C)CC(=O)O)c3)no2)ccc1-c1ccccc1	inactive
Cn1c2ccccc2c2c(NCc3ccc4c(c3)OCO4)nc(-c3ccc(C(=O)O)cc3)nc21	inactive
O=C(O)c1ccc(-c2nc(NCc3ccc4c(c3)OCO4)c3cc(Cl)sc3n2)cc1	inactive
Cc1cc(-c2ccccc2)c(S(C)(=O)=O)cc1C(=O)N=C(N)N	inactive
COc1ccc(C2=NN(C(=O)c3ccc(NC(=O)c4ccncc4)cc3)CCC2)cc1OC1CCCC1	inactive
O=C(O)CC1CCN(c2nc(NCc3ccc4c(c3)OCO4)c3c4c(sc3n2)CCCC4)CC1	inactive
CC1(C)Oc2ccc(C#N)cc2[C@@H](n2ccccc2=O)[C@]1(C)O	inactive
CC1=C(C(=O)N2CCc3ccc(C(F)(F)F)cc3C2)C2(CCN(C3CCOC(C)C3)CC2)OC1=O (stereo not drawn)	inactive
c1cnc(N2CCN(Cc3cncc(-c4ccsc4)c3)CC2)nc1	inactive
Cc1cc2c(cc1C(=O)N=C(N)N)S(=O)(=O)CCC2C (stereo not drawn)	inactive
